This passage reports IC50 results from patent US20100093748A1, “SUBSTITUTED PIPERIDINES HAVING PROTEIN KINASE INHIBITING ACTIVITY” (ASTEX THERAPEUTICS LIMITED, priority 2006, published 2010).

For this experiment, the system named is phosphorylation of Serine-9 residue in Glycogen Synthase Kinase-3beta as surrogate marker of cellular PKB (Akt) activity. Description: In vitro MDA-MB-468 human breast adenocarcinoma GSK-3 phosphorylation assay. Format: cell-based. The note with it: MDA-MB-468 cells, 2 hours compound incubation, mean IC50, read-out: Cell pGSK3b IC50. From the text:
This assay determines the ability of test compounds to inhibit phosphorylation of Serine-9 residue in Glycogen Synthase Kinase-3beta (GSK-313) as a surrogate marker of cellular PKB (Akt) activity, as assessed using Acumen Explorer Fluorescent Plate-Reader technology. A MDA-MB-468 human breast adenocarcinoma cell line (LGC Promochem, Teddington, Middlesex, UK, Catalogue No. HTB-132) was routinely maintained in Dulbecco's modified Eagle's growth medium (DMEM; Invitrogen Limited, Paisley, UK Catalogue No. 11966-025) containing 10% heat-inactivated foetal calf serum (FCS; Sigma, Poole, Dorset, UK, Catalogue No. F0392) and 1% L-glutamine (Gibco, Catalogue No. 25030-024) at 37° C. with 5% CO2 up to a confluency of 70-90%.
For the phosphorylation assay, the cells were detached from the culture flask using Trypsin-EDTA (Invitrogen Limited, Catalogue No. 25300-062) and seeded into the wells of a black transparent-bottom Corning Costar Polystyrene 96 well plate (Fisher Scientific UK, Loughborough, Leicestershire, UK; Catalogue No. 3904 and DPS-130-020K) at a density of 5000 cells per well in 100 μl of complete growth media. The cells were incubated overnight at 37° C. with 5% CO2 to allow them to adhere.
On day 2, the cells were treated with test compounds and incubated for 2 hours at 37° C. with 5% CO2. Test compounds were prepared as 10mM stock solutions in DMSO and dosed directly to required concentration into test wells using non-contact (acoustic dispensing of multiple 2.5 nl droplets directly into assay wells) ECHO dosing technology (Labcyte Inc Sunnyvale, Calif., USA). Each plate contained control wells without test compound.
20 μl of fixing buffer (Phosphate Buffered Saline (PBS) containing 10% formaldehyde; Sigma; Catalogue No. F1635) was then added to each well to give a final well concentration 1.6%. Plates were then incubated for 30 minutes at room temperature prior to the fixative being removed. Each well was washed once with 250 μl of PBS and then 50 μl PBS added to each well. PBS was then aspirated and cells permeabilised and blocked by incubating each well with 50 μl of permeabilisation/blocking buffer (PBS containing 0.5% Tween 20 (Sigma; Catalogue No. P5927) and 5% Marvel Milk Powder (Andrews Pharmacy Ltd, Macclesfield, Cheshire, UK; Catalogue No. APC100199)) for 1 hour at room temperature prior to staining.
Following removal of Perm/Block buffer, 50 μl of primary anti-phospho-GSK-3β antibody (Cell Signalling Technology (New England Biolabs (Uk) Ltd.), Hitchin, Hertfordshire, UK; Catalogue No.9336 diluted 1:400 in Blocking buffer (PBS containing 5% Marvel and 0.05% Tween/Polysorbate 20) was added to each well and incubated overnight at 4° C.
Each well was washed three times in 250 μl of wash buffer (PBS containing 0.05% polysorbate 20), and cells incubated for 1 hour at room temperature with 50 μl of secondary fluorescently-labelled anti-rabbit Alexa Fluor 488 antibody (Molecular Probes, Invitrogen Limited, Catalogue No. A11008) diluted 1:750 in blocking buffer. Plates were washed three times in 250 μl of wash buffer and stored containing 50 μl of PBS at 4° C. until required.
Plates were analysed using an Acumen Explorer Plate-reader to quantify level of fluorescent signal that represents quantity of phosphorylated-GSK-313.
IC50 calculation—IC50 is the concentration of compound required to give 50% effect over the range of activity affected by the compound, between maximum (no compound) and minimum (excess level of compound) response control data. IC50 values were determined by fitting background corrected, dose response assay data to a 4 parameter logistic curve fit equation model with the minimum response set to zero. This was done using an in-house developed algorithm within the Origin graphing software package (OriginLab Corporation, Northampton, Mass., USA). […]
What is called IC50 is the concentration at which inhibition is half-maximal. As for `NCC1(c2nc3cc(Cl)ccc3[nH]2)CCN(c2ncnc3[nH]cnc23)CC1` [Example 66G, (4-(5-chloro-1H-benzo[d]imidazol-2-yl)-1-(9H-purin-6-yl)piperidin-4-yl)methanamine], the half-inhibitory concentration (IC50) stood at 110 nM.

Take `NCC1(c2nc3cc(Cl)ccc3[nH]2)CCN(c2ncnc3[nH]ccc23)CC1` [Example 67B, (4-(5-chloro-1H-benzo[d]imidazol-2-yl)-1-(7H-pyrrolo[2,3-d]pyrimidin-4-yl)piperidin-4-yl)methanamine]: the IC50 was determined as 62 nM.

Take `NC1(c2nc3cc(Br)ccc3[nH]2)CCN(c2ncnc3[nH]ccc23)CC1` [Example 68B, 4-(5-bromo-1H-benzo[d]imidazol-2-yl)-1-(7H-pyrrolo[2,3-d]pyrimidin-4-yl)piperidin-4-amine]: the half-maximal inhibitory concentration (IC50) stood at 460 nM.

For the molecule `NC1(c2nc3cc(-c4ccccc4)ccc3[nH]2)CCN(c2ncnc3[nH]ccc23)CC1` [Example 68D, 4-(5-phenyl-1H-benzo[d]imidazol-2-yl)-1-(7H-pyrrolo[2,3-d]pyrimidin-4-yl)piperidin-4-amine], the half-inhibitory concentration (IC50) stood at 2400 nM.

As to `NC1(c2nc3cc(-c4ccoc4)ccc3[nH]2)CCN(c2ncnc3[nH]ccc23)CC1` [Example 69, 4-(5-furan-3-yl-1H-benzimidazol-2-yl)-1-(7H-pyrrolo[2,3-d]pyrimidin-4-yl)piperidin-4-amine], the half-maximal inhibitory concentration (IC50) stood at 1600 nM.

As to `NC1(c2nc3cc(-c4ccncc4)ccc3[nH]2)CCN(c2ncnc3[nH]ccc23)CC1` [Example 70, 4-(5-pyridin-4-yl-1H-benzimidazol-2-yl)-1-(7H-pyrrolo[2,3-d]pyrimidin-4-yl)piperidin-4-amine], the 50% inhibitory concentration (IC50) was 1600 nM.

Turning to `COc1ccccc1-c1ccc2[nH]c(C3(N)CCN(c4ncnc5[nH]ccc45)CC3)nc2c1` [Example 71, 4-[5-(2-methoxyphenyl)-1H-benzimidazol-2-yl]-1-(7H-pyrrolo[2,3-d]pyrimidin-4-yl)piperidin-4-amine], the IC50 stood at 2500 nM.

`NC1(c2nc3cc(-c4ccco4)ccc3[nH]2)CCN(c2ncnc3[nH]ccc23)CC1` [Example 72]: the concentration for half-maximal inhibition (IC50) stood at 3000 nM.

For the molecule `COc1ccc(-c2ccc3[nH]c(C4(N)CCN(c5ncnc6[nH]ccc56)CC4)nc3c2)cc1` [Example 73, 4-[5-(4-methoxyphenyl)-1H-benzimidazol-2-yl]-1-(7H-pyrrolo[2,3-d]pyrimidin-4-yl)piperidin-4-amine], the IC50 is 3300 nM.

For `Cn1cc(-c2ccc3[nH]c(C4(N)CCN(c5ncnc6[nH]ccc56)CC4)nc3c2)cn1` [Example 74, 4-[5-(1-methylpyrazol-4-yl)-1H-benzimidazol-2-yl]-1-(7H-pyrrolo[2,3-d]pyrimidin-4-yl)piperidin-4-amine], the concentration for half-maximal inhibition (IC50) was determined as 3700 nM.

As for `CS(=O)(=O)c1cccc(-c2ccc3[nH]c(C4(N)CCN(c5ncnc6[nH]ccc56)CC4)nc3c2)c1` [Example 75, 4-[5-(3-methylsulfonylphenyl)-1H-benzimidazol-2-yl]-1-(7H-pyrrolo[2,3-d]pyrimidin-4-yl)piperidin-4-amine], the IC50 turned out to be 5100 nM.

As for `COc1cccc(-c2ccc3[nH]c(C4(N)CCN(c5ncnc6[nH]ccc56)CC4)nc3c2)c1` [Example 76, 4-[5-(3-methoxyphenyl)-1H-benzimidazol-2-yl]-1-(7H-pyrrolo[2,3-d]pyrimidin-4-yl)piperidin-4-amine], the IC50 was determined as 6400 nM.

With `NC1(c2nc3cc(-c4cccnc4)ccc3[nH]2)CCN(c2ncnc3[nH]ccc23)CC1` [Example 77, 4-(5-pyridin-3-yl-1H-benzimidazol-2-yl)-1-(7H-pyrrolo[2,3-d]pyrimidin-4-yl)piperidin-4-amine], the 50% inhibitory concentration (IC50) is 12000 nM.

As for `CS(=O)(=O)c1ccc(-c2ccc3[nH]c(C4(N)CCN(c5ncnc6[nH]ccc56)CC4)nc3c2)cc1` [Example 78, 4-[5-(4-methylsulfonylphenyl)-1H-benzimidazol-2-yl]-1-(7H-pyrrolo[2,3-d]pyrimidin-4-yl)piperidin-4-amine], the half-inhibitory concentration (IC50) is 16000 nM.

Turning to `NC1(c2nc3c(-c4cccnc4)cccc3[nH]2)CCN(c2ncnc3[nH]ccc23)CC1` [Example 79], the IC50 came to 85 nM.

Regarding `COc1ccccc1-c1cccc2[nH]c(C3(N)CCN(c4ncnc5[nH]ccc45)CC3)nc12` [Example 80, 4-[4-(2-methoxyphenyl)-1H-benzimidazol-2-yl]-1-(7H-pyrrolo[2,3-d]pyrimidin-4-yl)piperidin-4-amine], the IC50 was determined as 64 nM.

Take `COc1cccc(-c2cccc3[nH]c(C4(N)CCN(c5ncnc6[nH]ccc56)CC4)nc23)c1` [Example 81, -[4-(3-methoxyphenyl)-1H-benzimidazol-2-yl]-1-(7H-pyrrolo[2,3-d]pyrimidin-4-yl)piperidin-4-amine]: the 50% inhibitory concentration (IC50) is 140 nM.

Consider `COc1ccc(-c2cccc3[nH]c(C4(N)CCN(c5ncnc6[nH]ccc56)CC4)nc23)cc1` [Example 82, -[4-(4-methoxyphenyl)-1H-benzimidazol-2-yl]-1-(7H-pyrrolo[2,3-d]pyrimidin-4-yl)piperidin-4-amine], for which the IC50 is 120 nM.

Take `CS(=O)(=O)c1ccc(-c2cccc3[nH]c(C4(N)CCN(c5ncnc6[nH]ccc56)CC4)nc23)cc1` [Example 83, 4-{4-[4-(methylsulfonyl)phenyl]-1H-benzimidazol-2-yl}-1-(7H-pyrrolo[2,3-d]pyrimidin-4-yl)piperidin-4-amine]: the IC50 came out at 47 nM.

Regarding `NC1(c2nc3c(Br)cccc3[nH]2)CCN(c2ncnc3[nH]ccc23)CC1` [Example 85, 4-(7-Bromo-1H-benzo[d]imidazol-2-yl)-1-(7H-pyrrolo[2,3-d]pyrimidin-4-yl)piperidin-4-amine], the IC50 came to 350 nM.

For the molecule `Cn1cc(-c2cccc3[nH]c(C4(N)CCN(c5ncnc6[nH]ccc56)CC4)nc23)cn1` [Example 86, 4-(4-(1-Methyl-1H-pyrazol-4-yl)-1H-benzo[d]imidazol-2-yl)-1-(7H-pyrrolo[2,3-d]pyrimidin-4-yl)piperidin-4-amine], the 50% inhibitory concentration (IC50) stood at 130 nM.

As to `NC1(c2nc3c(-c4ccco4)cccc3[nH]2)CCN(c2ncnc3[nH]ccc23)CC1` [Example 87, 4-[7-(2-furyl)-1H-benzimidazol-2-yl]-1-(7H-pyrrolo[2,3-d]pyrimidin-4-yl)piperidin-4-amine], the IC50 worked out at 220 nM.

With `NC1(c2nc3c(-c4ccoc4)cccc3[nH]2)CCN(c2ncnc3[nH]ccc23)CC1` [Example 88, 4-[7-(3-furyl)-1H-benzimidazol-2-yl]-1-(7H-pyrrolo[2,3-d]pyrimidin-4-yl)piperidin-4-amine], the half-maximal inhibitory concentration (IC50) came out at 52 nM.

On to `NCC1(c2nc3cc(Br)ccc3[nH]2)CCN(c2ncnc3[nH]ccc23)CC1` [Example 89E, (4-(5-Bromo-1H-benzo[d]imidazol-2-yl)-1-(7H-pyrrolo[2,3-d]pyrimidin-4-yl)piperidin-4-yl)methanamine], for which the IC50 is 81 nM.

Turning to `NC1(c2nc3c(-c4cncnc4)cccc3[nH]2)CCN(c2ncnc3[nH]ccc23)CC1` [Example 91, 4-(4-pyrimidin-5-yl-1H-benzimidazol-2-yl)-1-(7H-pyrrolo[3,2-e]pyrimidin-4-yl)piperidin-4-amine], the concentration for half-maximal inhibition (IC50) was 52 nM.

Consider `NC1(c2nc3c(-c4ccncc4)cccc3[nH]2)CCN(c2ncnc3[nH]ccc23)CC1` [Example 92, 4-(4-pyridin-4-yl-1H-benzimidazol-2-yl)-1-(7H-pyrrolo[3,2-e]pyrimidin-4-yl)piperidin-4-amine], for which the concentration for half-maximal inhibition (IC50) is 33 nM.

With `NC1(c2nc3c(-c4cn[nH]c4)cccc3[nH]2)CCN(c2ncnc3[nH]ccc23)CC1` [Example 93, 4-[4-(1H-pyrazol-4-yl)-1H-benzimidazol-2-yl]-1-(7H-pyrrolo[3,2-e]pyrimidin-4-yl)piperidin-4-amine], the IC50 worked out at 250 nM.
